Assay results as given in patent US11230556B2 (Merck Sharp & Dohme Corp., priority 2016, dated 2022).
pEC50: −log10 of the molar value.

target: T1, human M4 muscarinic acetylcholine receptor (Homo sapiens, UniProt P08173); test: human FLIPR-based M4 PAM assay (CHO-K1 cells with human M4 receptor and Gαqi5, calcium dye fluorescence, acetylcholine at 20% of maximum response); assay type: cell-based; conditions: inflection point (IP) of 4 parameter logistic dose response curve, human M4 receptor + Gαqi5, FLIPR Tetra
T1 construct: expressed in transfected cells; host or cells: CHO-K1
T1 sequence (P08173 1-479): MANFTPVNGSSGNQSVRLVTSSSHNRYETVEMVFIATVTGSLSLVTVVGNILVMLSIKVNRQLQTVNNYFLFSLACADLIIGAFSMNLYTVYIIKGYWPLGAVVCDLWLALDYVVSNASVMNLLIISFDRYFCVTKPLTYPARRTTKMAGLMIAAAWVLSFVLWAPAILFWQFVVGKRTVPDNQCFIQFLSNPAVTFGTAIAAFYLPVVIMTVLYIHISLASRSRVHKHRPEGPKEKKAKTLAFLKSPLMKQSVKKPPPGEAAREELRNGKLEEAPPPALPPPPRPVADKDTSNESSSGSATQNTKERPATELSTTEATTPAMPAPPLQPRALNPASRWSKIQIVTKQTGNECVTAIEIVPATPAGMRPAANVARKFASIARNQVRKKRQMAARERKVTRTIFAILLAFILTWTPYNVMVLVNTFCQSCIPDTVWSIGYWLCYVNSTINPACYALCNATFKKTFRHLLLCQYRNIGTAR
Description: In a typical experiment the M4 muscarinic acetylcholine receptor modulating activity of the compounds of the present invention was determined in accordance with the following experimental method. CHO-K1 cells stably transfected with human M4 receptor and chimeric G-protein Gαqi5 (Coward P, et al., Analytical Biochemistry, 270:242-248 (1999)) are thawed from liquid N2 storage, resuspended in growth medium, plated in black, clear bottom 384 well plates, and incubated 16-20 hours at 37° C., 5% CO2. On the day of assay, growth medium is removed, the cells are washed 2 times with wash buffer, and cells are incubated in dye loading buffer at 37° C., 5% CO2 for ˜1 hour. Following dye loading the cell plates are placed in a FLIPR Tetra instrument and while monitoring dye fluorescence (excitation […]), 10 uL of test substance at increasing concentrations is added, and fluorescence values are recorded for 4 min. Next, 10 uL of acetylcholine is added (final concentration calculated so as to achieve 20% of the maximum acetycholine response), and the fluorescence reading is continued for 3.5 min. In some cases, a third addition of acetylcholine (final concentration calculated to achieve 70% of the maximal acetylcholine response) is performed. The resulting dose response curves are fit to a 4 parameter logistic equation and the final result is determined as the inflection point (IP) of the curve
CHO-K1 cells stably transfected with human M4 receptor and chimeric G-protein Gαqi5 are thawed from liquid N2 storage, resuspended in growth medium, plated in black, clear bottom 384 well plates, and incubated 16-20 hours at 37° C., 5% CO2.
On the day of assay, growth medium is removed, the cells are washed 2 times with wash buffer, and cells are incubated in dye loading buffer at 37° C., 5% CO2 for ˜1 h. Following dye loading the cell plates are placed in a FLIPR Tetra instrument and while monitoring dye fluorescence ([…]), 10 uL of test substance at increasing concentrations is added, and fluorescence values are recorded for 4 min. Next, 10 uL of acetylcholine is added (final concentration calculated so as to achieve 20% of the maximum acetycholine response), and the fluorescence reading is continued for 3.5 min. In some cases, a third addition of acetylcholine (final concentration calculated to achieve 70% of the maximal acetylcholine response) is performed.

SMILES | pEC50
Cc1cc2c(=O)[nH]n(C)c2nc1N1CCC(Oc2ccc3cn[nH]c3c2)CC1 [Example 27, 6-(4-((1H-indazol-6-yl)oxy)piperidin-1-yl)-1,5-dimethyl-1,2-dihydro-3H-pyrazolo[3,4-b]pyridin-3-one] | 7.15
COc1ccc(OC2CCN(c3nc4nccn4c(Cl)c3C)CC2)cn1 [Example 28, 5-chloro-7-(4-((6-methoxypyridin-3-yl)oxy)piperidin-1-yl)-6-methylimidazo[1,2-a]pyrimidine] | 6.23
COc1ccc(OC2CCN(c3nc4c(cc3C)C(=O)OC4(C)C)CC2)cn1 [Example 30, 2-(4-((6-methoxypyridin-3-yl)oxy)piperidin-1-yl)-3,7,7-trimethylfuro[3,4-b]pyridin-5(7H)-one] | 6.07
Cc1cc2c(nc1N1CCC(Oc3ccccc3)CC1)COC2=O [Example 31, 3-methyl-2-(4-phenoxypiperidin-1-yl)furo[3,4-b]pyridin-5(7H)-one] | 7.77
Cc1cc2c(nc1N1CCC(Oc3cccc(C#N)c3)CC1)COC2=O [Example 32, 3-((1-(3-methyl-5-oxo-5,7-dihydrofuro[3,4-b]pyridin-2-yl)piperidin-4-yl)oxy)benzonitrile] | 7.85
COc1ccc(OC2CCN(c3nc4c(cc3C)C(=O)OC4CO)CC2)cn1 (stereo not drawn) [Example 33, 7-(Hydroxymethyl)-2-(4-((6-methoxypyridin-3-yl)oxy)piperidin-1-yl)-3-methylfuro[3,4-b]pyridin-5(7H)-one] | 7.47
COc1ccc(OC2CCN(c3nc4c(cc3C)CNC4)CC2)cn1 [Example 34, 2-(4-((6-Methoxypyridin-3-yl)oxy)piperidin-1-yl)-3-methyl-6,7-dihydro-5H-pyrrolo[3,4-b]pyridine] | 6.46
Cc1cc2c(nc1N1CCC(Oc3ccccc3)CC1)CNC2 [Example 35, 3-methyl-2-(4-phenoxypiperidin-1-yl)-6,7-dihydro-5H-pyrrolo[3,4-b]pyridine] | 7.12
COc1ccc(OC2CCN(c3nc4c(cc3C)CN(Cc3ccncc3)C4=O)CC2)cn1 [Example 36, 2-(4-((6-Methoxypyridin-3-yl)oxy)piperidin-1-yl)-3-methyl-6-(pyridin-4-ylmethyl)-5,6-dihydro-7H-pyrrolo[3,4-b]pyridin-7-one] | 6.17
COc1ccc(OC2CCN(c3nc4c(cc3C)CN(CCO)C4)CC2)cn1 [Example 37, 2-(2-(4-((6-methoxypyridin-3-yl)oxy)piperidin-1-yl)-3-methyl-5,7-dihydro-6H-pyrrolo[3,4-b]pyridin-6-yl)ethan-1-ol] | 6.88
COc1ccc(OC2CCN(c3nc4c(cnn4C)cc3C)CC2)cn1 [Example 38, 6-(4-((6-methoxypyridin-3-yl)oxy)piperidin-1-yl)-1,5-dimethyl-1H-pyrazolo[3,4-b]pyridine] | 6.40
COc1ccc(OC2CCN(c3nc4c(cc3C)CN(C(=O)C3(C)CCCC3)C4)CC2)cn1 [Example 44, (2-(4-((6-methoxypyridin-3-yl)oxy)piperidin-1-yl)-3-methyl-5,7-dihydro-6H-pyrrolo[3,4-b]pyridin-6-yl)(1-methylcyclopentyl)methanone] | 6.31
COc1ccc(OC2CCN(c3nc4c(cc3C)CN(C(=O)C3CCCC3)C4)CC2)cn1 [Example 46, cyclopentyl(2-(4-((6-methoxypyridin-3-yl)oxy)piperidin-1-yl)-3-methyl-5,7-dihydro-6H-pyrrolo[3,4-b]pyridin-6-yl)methanone] | 6.51
Cc1cc2c(nc1N1CCC(Oc3ccccc3)CC1)CN(C(=O)C1CC1)C2 [Example 47, cyclopropyl(3-methyl-2-(4-phenoxypiperidin-1-yl)-5,7-dihydro-6H-pyrrolo[3,4-b]pyridin-6-yl)methanone] | 6.95
COc1ccc(OC2CCN(c3nc4c(cc3C)CN(C(=O)C3CCO3)C4)CC2)cn1 (stereo not drawn) [Example 48, (2-(4-((6-methoxypyridin-3-yl)oxy)piperidin-1-yl)-3-methyl-5,7-dihydro-6H-pyrrolo[3,4-b]pyridin-6-yl)(oxetan-2-yl)methanone] | 6.78
COc1ccc(OC2CCN(c3nc4c(cc3C)CN(C(=O)C3CC(F)(F)C3)C4)CC2)cn1 [Example 49, (3,3-difluorocyclobutyl)(2-(4-((6-methoxypyridin-3-yl)oxy)piperidin-1-yl)-3-methyl-5,7-dihydro-6H-pyrrolo[3,4-b]pyridin-6-yl)methanone] | 6.90
COc1ccc(OC2CCN(c3nc4c(cc3C)CN(C(=O)c3ccc[nH]3)C4)CC2)cn1 [Example 50, (2-(4-((6-methoxypyridin-3-yl)oxy)piperidin-1-yl)-3-methyl-5,7-dihydro-6H-pyrrolo[3,4-b]pyridin-6-yl)(1H-pyrrol-2-yl)methanone] | 6.32

Further lines, results first:

pEC50 | SMILES
7.11 | COc1ccc(OC2CCN(c3nc4c(cc3C)CN(C(=O)CCO)C4)CC2)cn1 [Example 39, 3-Hydroxy-1-(2-(4-((6-methoxypyridin-3-yl)oxy)piperidin-1-yl)-3-methyl-5,7-dihydro-6H-pyrrolo[3,4-b]pyridin-6-yl)propan-1-one]
6.79 | COc1ccc(OC2CCN(c3nc4c(cc3C)CN(C(C)=O)C4)CC2)cn1 [Example 40, 1-(2-(4-((6-methoxypyridin-3-yl)oxy)piperidin-1-yl)-3-methyl-5,7-dihydro-6H-pyrrolo[3,4-b]pyridin-6-yl)ethan-1-one]
6.82 | COc1ccc(OC2CCN(c3nc4c(cc3C)CN(C(=O)C3CC3)C4)CC2)cn1 [Example 41, cyclopropyl(2-(4-((6-methoxypyridin-3-yl)oxy)piperidin-1-yl)-3-methyl-5,7-dihydro-6H-pyrrolo[3,4-b]pyridin-6-yl)methanone]
6.70 | COc1ccc(OC2CCN(c3nc4c(cc3C)CN(C(=O)C3(C)COC3)C4)CC2)cn1 [Example 42, (2-(4-((6-methoxypyridin-3-yl)oxy)piperidin-1-yl)-3-methyl-5,7-dihydro-6H-pyrrolo[3,4-b]pyridin-6-yl)(3-methyloxetan-3-yl)methanone]
6.80 | CCOC(=O)N1Cc2cc(C)c(N3CCC(Oc4ccc(OC)nc4)CC3)nc2C1 [Example 43, ethyl 2-(4-((6-methoxypyridin-3-yl)oxy)piperidin-1-yl)-3-methyl-5,7-dihydro-6H-pyrrolo[3,4-b]pyridine-6-carboxylate]
6.63 | COc1ccc(OC2CCN(c3nc4c(cc3C)CN(C(=O)C(C)(C)C)C4)CC2)cn1 [Example 45, 1-(2-(4-((6-methoxypyridin-3-yl)oxy)piperidin-1-yl)-3-methyl-5,7-dihydro-6H-pyrrolo[3,4-b]pyridin-6-yl)-2,2-dimethylpropan-1-one]
6.96 | COc1ccc(OC2CCN(c3nc4c(cc3C)CN(C(=O)[C@H](C)O)C4)CC2)cn1 [Example 51, (S)-2-hydroxy-1-(2-(4-((6-methoxypyridin-3-yl)oxy)piperidin-1-yl)-3-methyl-5,7-dihydro-6H-pyrrolo[3,4-b]pyridin-6-yl)propan-1-one]
6.34 | COc1ccc(OC2CCN(c3nc4c(cc3C)CN(C(=O)C3CN(C)C3)C4)CC2)cn1 [Example 52, (2-(4-((6-methoxypyridin-3-yl)oxy)piperidin-1-yl)-3-methyl-5,7-dihydro-6H-pyrrolo[3,4-b]pyridin-6-yl)(1-methylazetidin-3-yl)methanone]
6.30 | COc1ccc(OC2CCN(c3nc4c(cc3C)CN(C(=O)CCN(C)C)C4)CC2)cn1 [Example 53, 3-(dimethylamino)-1-(2-(4-((6-methoxypyridin-3-yl)oxy)piperidin-1-yl)-3-methyl-5,7-dihydro-6H-pyrrolo[3,4-b]pyridin-6-yl)propan-1-one]
6.62 | COc1ccc(OC2CCN(c3nc4c(cc3C)CN(C(=O)CN(C)C)C4)CC2)cn1 [Example 54, 2-(dimethylamino)-1-(2-(4-((6-methoxypyridin-3-yl)oxy)piperidin-1-yl)-3-methyl-5,7-dihydro-6H-pyrrolo[3,4-b]pyridin-6-yl)ethan-1-one]
